Legend:
EED in HeLa cells [1] = target: T1, EED in HeLa cells (Homo sapiens, UniProt O75530); test: Western blot EED degradation in HeLa cells; format: cell-based; conditions: for EED protein levels: 10 μM, 24 to 72 hrs
EZH2 in HeLa cells [2] = test: Western blot EZH2 degradation in HeLa cells; format: cell-based, human; conditions: for EZH2 protein levels: 10 μM, 24 to 72 hrs
H3K27me3 in HeLa cells = test: Western blot H3K27me3 levels in HeLa cells; format: cell-based, human; conditions: for H3K27me3 reduced: 10 μM, after 72 hours
DB cell viability = format: cell-based; conditions: human, DB cells
EED = conditions: read-out: reported IC50 (EED); ref Huang et al., 2017; cited from earlier work
EED in HeLa cells [3] = target: T1, EED in HeLa cells; test: Jess ProteinSimple analysis of EED levels; format: cell-based; conditions: 5 μM, 4, 24 and 48 hrs, decrease stated at 24 hrs
EZH2 in HeLa cells [4] = test: Jess ProteinSimple analysis of EZH2 levels; format: cell-based, human; conditions: 5 μM, 4, 24 and 48 hrs, decrease stated at 24 hrs
[5] = target: 6XHis-tagged recombinant EED (residues 1 – 441) (Homo sapiens, UniProt O75530); test: TR-FRET EED binding assay; conditions: TR-FRET EED IC50 relative to EED226
SUZ12 in HeLa cells [6] = test: Western blot SUZ12 degradation in HeLa cells; format: cell-based, human
HeLa cells = test: Cellular toxicity in HeLa cells; format: cell-based, human; conditions: concentrations up to 30 μM
SUZ12 in HeLa cells [7] = test: Global proteomics; format: cell-based, human; conditions: 10 μM, 24 hrs, TMT proteomics
[8] = target: EED in DB cells (EZH2^Y641N) (Homo sapiens, UniProt O75530); test: Western blot EED degradation in DB cells; format: cell-based
[9] = system: EZH2/EZH2^Y641N in DB cells; test: Western blot EZH2 degradation in DB cells; format: cell-based, human
[10] = system: SUZ12 in DB cells (EZH2^Y641N); test: Western blot SUZ12 degradation in DB cells; format: cell-based, human
[11] = system: H3K27me3 in DB cells (EZH2^Y641N); test: Western blot H3K27me3 levels in DB cells; format: cell-based, human; conditions: 10 μM, after 72 hours
[12] = target: PRC2 subunits in Pfeiffer cells (EZH2^A677G) (Homo sapiens, UniProt O75530); test: PRC2 degradation in Pfeiffer cells; format: cell-based; conditions: Figure S6
DB cells = test: DB cell proliferation; format: cell-based, human; conditions: up to 12 days, 3 μM (Figure 6A)
Pfeiffer cells = test: Pfeiffer cell proliferation; format: cell-based, human; conditions: up to 12 days, 3 μM (Figure 6B)

EED in DB cells (EZH2^Y641N), sequence (O75530 2-441 limits assumed, stated change not applied): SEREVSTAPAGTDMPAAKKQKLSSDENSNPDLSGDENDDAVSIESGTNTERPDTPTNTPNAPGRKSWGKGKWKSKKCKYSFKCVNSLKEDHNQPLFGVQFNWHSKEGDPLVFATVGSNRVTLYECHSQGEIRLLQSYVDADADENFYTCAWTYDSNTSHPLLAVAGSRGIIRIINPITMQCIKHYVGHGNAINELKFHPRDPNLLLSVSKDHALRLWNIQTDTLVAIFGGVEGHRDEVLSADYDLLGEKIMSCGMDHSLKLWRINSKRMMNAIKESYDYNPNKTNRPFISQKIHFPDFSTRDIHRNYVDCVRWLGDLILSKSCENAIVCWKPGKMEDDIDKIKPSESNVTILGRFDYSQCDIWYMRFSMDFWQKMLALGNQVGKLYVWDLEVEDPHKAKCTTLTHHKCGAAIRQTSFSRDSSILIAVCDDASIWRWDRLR
T1 sequence (O75530 whole entry): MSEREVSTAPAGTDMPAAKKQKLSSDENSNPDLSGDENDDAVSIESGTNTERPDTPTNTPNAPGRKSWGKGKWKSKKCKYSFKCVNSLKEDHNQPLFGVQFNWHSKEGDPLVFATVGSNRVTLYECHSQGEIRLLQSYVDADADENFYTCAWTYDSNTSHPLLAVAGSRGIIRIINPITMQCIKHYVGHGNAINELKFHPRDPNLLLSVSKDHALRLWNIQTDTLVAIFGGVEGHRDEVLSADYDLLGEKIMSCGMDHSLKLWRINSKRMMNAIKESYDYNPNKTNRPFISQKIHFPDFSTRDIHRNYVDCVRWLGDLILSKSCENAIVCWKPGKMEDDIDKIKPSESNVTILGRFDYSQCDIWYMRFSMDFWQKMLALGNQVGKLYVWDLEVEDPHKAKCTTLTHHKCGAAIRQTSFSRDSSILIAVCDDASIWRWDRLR
6XHis-tagged recombinant EED (residues 1 – 441), sequence (O75530 whole entry, the tested form may be a part): as the sequence (O75530 whole entry) above
PRC2 subunits in Pfeiffer cells (EZH2^A677G), sequence (O75530 whole entry, stated change not applied): as the sequence (O75530 whole entry) above
PRC2 subunits in Pfeiffer cells (EZH2^A677G), sequence (Q15910 whole entry A677G partner): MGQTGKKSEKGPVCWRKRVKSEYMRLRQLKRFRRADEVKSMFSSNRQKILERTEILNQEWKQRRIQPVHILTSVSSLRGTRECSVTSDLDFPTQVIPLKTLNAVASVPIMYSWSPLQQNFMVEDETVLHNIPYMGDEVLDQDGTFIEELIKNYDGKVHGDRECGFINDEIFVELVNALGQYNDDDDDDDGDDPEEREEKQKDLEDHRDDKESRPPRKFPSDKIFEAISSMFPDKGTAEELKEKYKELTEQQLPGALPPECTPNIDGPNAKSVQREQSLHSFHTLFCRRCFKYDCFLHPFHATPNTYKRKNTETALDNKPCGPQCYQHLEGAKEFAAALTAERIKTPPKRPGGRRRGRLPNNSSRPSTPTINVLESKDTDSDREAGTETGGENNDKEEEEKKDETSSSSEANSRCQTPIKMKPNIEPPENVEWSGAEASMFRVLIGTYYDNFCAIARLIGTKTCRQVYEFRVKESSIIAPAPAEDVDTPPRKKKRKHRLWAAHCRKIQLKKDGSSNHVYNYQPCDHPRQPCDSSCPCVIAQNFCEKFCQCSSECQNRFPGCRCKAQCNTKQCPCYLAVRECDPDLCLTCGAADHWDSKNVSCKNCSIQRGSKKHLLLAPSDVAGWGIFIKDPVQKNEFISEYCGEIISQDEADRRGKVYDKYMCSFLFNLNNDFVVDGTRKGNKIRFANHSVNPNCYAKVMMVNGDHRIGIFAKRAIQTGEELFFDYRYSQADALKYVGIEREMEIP
PRC2 subunits in Pfeiffer cells (EZH2^A677G), sequence (Q15022 whole entry partner): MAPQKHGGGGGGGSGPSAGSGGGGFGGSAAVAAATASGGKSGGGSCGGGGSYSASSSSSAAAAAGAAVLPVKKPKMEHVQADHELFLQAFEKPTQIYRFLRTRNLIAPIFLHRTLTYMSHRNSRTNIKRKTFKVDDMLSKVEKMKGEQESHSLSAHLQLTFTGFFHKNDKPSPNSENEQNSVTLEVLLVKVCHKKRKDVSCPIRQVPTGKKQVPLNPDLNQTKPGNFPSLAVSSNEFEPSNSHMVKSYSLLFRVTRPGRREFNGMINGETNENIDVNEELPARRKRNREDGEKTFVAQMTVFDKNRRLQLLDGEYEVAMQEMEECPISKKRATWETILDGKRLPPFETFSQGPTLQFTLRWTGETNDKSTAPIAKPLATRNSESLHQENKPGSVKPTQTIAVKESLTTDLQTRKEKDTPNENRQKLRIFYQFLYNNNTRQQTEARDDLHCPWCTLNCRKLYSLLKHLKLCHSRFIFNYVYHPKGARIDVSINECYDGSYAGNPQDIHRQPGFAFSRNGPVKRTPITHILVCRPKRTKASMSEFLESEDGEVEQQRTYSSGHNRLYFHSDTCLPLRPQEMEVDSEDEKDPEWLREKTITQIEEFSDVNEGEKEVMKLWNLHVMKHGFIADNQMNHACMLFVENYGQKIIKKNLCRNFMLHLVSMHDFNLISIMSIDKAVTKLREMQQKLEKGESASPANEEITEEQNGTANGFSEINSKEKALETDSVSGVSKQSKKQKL

Row | Compound | EED protein levels (EED in HeLa cells [1]; HeLa cells) | EZH2 protein levels (EZH2 in HeLa cells [2]) | H3K27me3 reduced (H3K27me3 in HeLa cells) [%] | viability at 12 days, 3 μM (DB cell viability) [%] | EED levels (Jess) (EED in HeLa cells [3]) | EZH2 levels (Jess) (EZH2 in HeLa cells [4]) | loss in potency compared to EED226 [5] [fold] | other results
1 | CS(=O)(=O)c1ccc(-c2cnc(NCc3ccco3)n3cnnc23)cc1 [EED226, reference compound] | had no effect | had no effect | 52 | 67 | – | – | – | IC50 (EED): 22 nM
2 | CCCc1cc(C)[nH]c(=O)c1CNC(=O)c1cc(-c2ccc(N3CCN(C(C)C)CC3)nc2)cc2c1cnn2C(C)C [UNC1999, reference compound] | had no effect | had no effect | 60 | 67 | – | – | – | –
3 | Cc1ncsc1-c1ccc(CNC(=O)[C@@H]2C[C@@H](O)CN2C(=O)[C@@H](NC(=O)CCOCCOCCNC(=O)c2ccc(-c3cnc(NCc4ccco4)n4cnnc34)cc2)C(C)(C)C)cc1 [UNC6845, (2S,4R)-1-((S)-13-(tert-butyl)-1-(4-(5-((furan-2-ylmethyl)amino)-[1,2,4]triazolo[4,3-c]pyrimidin-8-yl)phenyl)-1,11-dioxo-5,8-dioxa-2,12-diazatetradecan-14-oyl)-4-hydroxy-N-(4-(4-methylthiazol-5-yl)benzyl)pyrrolidine-2-carboxamide] | – | – | – | – | unable to alter the levels | unable to alter the levels | 2 | –
4 | Cc1ncsc1-c1ccc(CNC(=O)[C@@H]2C[C@@H](O)CN2C(=O)[C@@H](NC(=O)COCCOCCOCCNC(=O)c2ccc(-c3cnc(NCc4ccco4)n4cnnc34)cc2)C(C)(C)C)cc1 [UNC6846, (2S,4R)-1-((S)-15-(tert-butyl)-1-(4-(5-((furan-2-ylmethyl)amino)-[1,2,4]triazolo[4,3-c]pyrimidin-8-yl)phenyl)-1,13-dioxo-5,8,11-trioxa-2,14-diazahexadecan-16-oyl)-4-hydroxy-N-(4-(4-methylthiazol-5-yl)benzyl)pyrrolidine-2-carboxamide] | – | – | – | – | unable to alter the levels | unable to alter the levels | 14 | –
5 | Cc1ncsc1-c1ccc(CNC(=O)[C@@H]2C[C@@H](O)CN2C(=O)[C@@H](NC(=O)CCOCCOCCOCCOCCNC(=O)c2ccc(-c3cnc(NCc4ccco4)n4cnnc34)cc2)C(C)(C)C)cc1 [UNC6847, (2S,4R)-1-((S)-19-(tert-butyl)-1-(4-(5-((furan-2-ylmethyl)amino)-[1,2,4]triazolo[4,3-c]pyrimidin-8-yl)phenyl)-1,17-dioxo-5,8,11,14-tetraoxa-2,18-diazaicosan-20-oyl)-4-hydroxy-N-(4-(4-methylthiazol-5-yl)benzyl)pyrrolidine-2-carboxamide] | – | – | – | – | unable to alter the levels | unable to alter the levels | 5 | –
6 | Cc1ncsc1-c1ccc(CNC(=O)[C@@H]2C[C@@H](O)CN2C(=O)[C@@H](NC(=O)CCNC(=O)c2ccc(-c3cnc(NCc4ccco4)n4cnnc34)cc2)C(C)(C)C)cc1 [UNC6851, (2S,4R)-1-((S)-2-(3-(4-(5-((furan-2-ylmethyl)amino)-[1,2,4]triazolo[4,3-c]pyrimidin-8-yl)benzamido)propanamido)-3,3-dimethylbutanoyl)-4-hydroxy-N-(4-(4-methylthiazol-5-yl)benzyl)pyrrolidine-2-carboxamide] | – | – | – | – | decrease in the levels | decrease in the levels | 6 | –
7 | Cc1ncsc1-c1ccc(CNC(=O)[C@@H]2C[C@@H](O)CN2C(=O)[C@@H](NC(=O)CCCNC(=O)c2ccc(-c3cnc(NCc4ccco4)n4cnnc34)cc2)C(C)(C)C)cc1 [UNC6852, (2S,4R)-1-((S)-2-(4-(4-(5-((furan-2-ylmethyl)amino)-[1,2,4]triazolo[4,3-c]pyrimidin-8-yl)benzamido)butanamido)-3,3-dimethylbutanoyl)-4-hydroxy-N-(4-(4-methylthiazol-5-yl)benzyl)pyrrolidine-2-carboxamide] | decrease in protein levels | decrease in protein levels | 51 | 95 | decrease in the levels | decrease in the levels | 5.5 | EED degradation (EED in HeLa cells [1]; HeLa cells, 5 μM, 24 hours, western blot): 80%; Dmax at 30 µM (EED in HeLa cells [1]; HeLa, read-out: Dmax EED (maximal degradation)): 92%; EZH2 degradation (EZH2 in HeLa cells [2]; 5 μM, 24 hours, western blot): 76%; Dmax EZH2 (maximal degradation) (EZH2 in HeLa cells [2]; % degradation at 30 μM after 24 hours): 75%; Dmax SUZ12 (maximal degradation) (SUZ12 in HeLa cells [6]; western blot): 22%; cellular toxicity (HeLa cells): no cellular toxicity was observed; SUZ12 degradation (proteomics) (SUZ12 in HeLa cells [7]): 21%; SUZ12 log2 fold change (treated/DMSO treated) (SUZ12 in HeLa cells [7]): −0.34; H3K27me3 levels after 96 hours (H3K27me3 in HeLa cells; 96 hours of treatment): further decrease in H3K27me3 levels; Dmax ([8]; DB, read-out: Dmax EED): 94%; DC50 ([8]; read-out: DC50 EED, DB cells, 24 hours): 610 ± 180 nM; Dmax EZH2/EZH2^Y641N [9]: 96%; DC50 ([9]; read-out: DC50 EZH2/EZH2^Y641N, 24 hours): 670 ± 240 nM; Dmax SUZ12 ([10]; DB cells): 82%; maximal degradation of SUZ12 in DB cells relative to HeLa cells ([10]; DB vs HeLa): 3.7 fold; EC50 ([10]; read-out: half maximal degradation concentration SUZ12, DB cells, 24 hours): 590 ± 170 nM; loss of H3K27me3 [11]: 71%; degradation of PRC2 subunits [12]: degradation of all three PRC2 subunits; effect on cell proliferation (DB cells): robust anti-proliferative effects; effect on cell proliferation (Pfeiffer cells): robust anti-proliferative effects
8 | Cc1ncsc1-c1ccc(CNC(=O)[C@@H]2C[C@@H](O)CN2C(=O)[C@@H](NC(=O)CCCCNC(=O)c2ccc(-c3cnc(NCc4ccco4)n4cnnc34)cc2)C(C)(C)C)cc1 [UNC6853, (2S,4R)-1-((S)-2-(5-(4-(5-((furan-2-ylmethyl)amino)-[1,2,4]triazolo[4,3-c]pyrimidin-8-yl)benzamido)pentanamido)-3,3-dimethylbutanoyl)-4-hydroxy-N-(4-(4-methylthiazol-5-yl)benzyl)pyrrolidine-2-carboxamide] | – | – | – | – | significant degradation was not observed | significant degradation was not observed | 8 | –
9 | Cc1ncsc1-c1ccc(CNC(=O)[C@@H]2C[C@H](O)CN2C(=O)[C@@H](NC(=O)CCCNC(=O)c2ccc(-c3cnc(NCc4ccco4)n4cnnc34)cc2)C(C)(C)C)cc1 [UNC7043, (2S,4S)-1-((S)-2-(4-(4-(5-((furan-2-ylmethyl)amino)-[1,2,4]triazolo[4,3-c]pyrimidin-8-yl)benzamido)butanamido)-3,3-dimethylbutanoyl)-4-hydroxy-N-(4-(4-methylthiazol-5-yl)benzyl)pyrrolidine-2-carboxamide] | – | – | – | – | – | – | – | EED degradation (western blot) (EED in HeLa cells [1]; HeLa cells, 10 μM for 24 hrs): did not degrade; EZH2 degradation (western blot) (EZH2 in HeLa cells [2]; 10 μM for 24 hrs): did not degrade; SUZ12 degradation (western blot) (SUZ12 in HeLa cells [6]; 10 μM for 24 hrs): did not degrade; EED levels (western blot) ([8]; DB cells, 10 μM for 24 hours): did not affect the levels; EZH2 levels (western blot) ([9]; 10 μM for 24 hours): did not affect the levels; SUZ12 levels (western blot) ([10]; DB cells, 10 μM for 24 hours): did not affect the levels; effect on cell proliferation (DB cells): had no effect on cell proliferation; effect on cell proliferation (Pfeiffer cells): had no effect on cell proliferation

Source: paper PMC7004250 (Cell chemical biology, 2019)
